Legend:
Format in all cases: cell-based
KCNQ3* = KCNQ3* (Homo sapiens, UniProt O43525, A315T); experiment: TEVC of homomeric KCNQ3* (A315T KCNQ3 mutant) expressed in Xenopus oocytes
Text: We next validated the in silico predictions using two-electrode voltage clamp of homomeric neuronal KCNQ2-5 channel isoforms expressed in Xenopus laevis oocytes. […] As in previous studies[8],[10], we used the A315T KCNQ3 mutant (KCNQ3*) that ensures large enough currents to accurately quantify voltage dependence and pharmacology of homomeric KCNQ3[16].
(§1) We generated cRNA transcripts encoding human KCNQ1, KCNQ2, KCNQ3, KCNQ4, KCNQ5 or GLRA1 (NM_001146040) (GenScript, Piscataway, NJ, USA) by in vitro transcription using the T7 polymerase mMessage mMachine kit (Thermo Fisher Scientific), after vector linearization, from cDNA sub-cloned into plasmids incorporating Xenopus laevis β-globin 5′ and 3′ UTRs flanking the coding region to enhance translation and cRNA stability. We quantified cRNA by spectrophotometry. We generated mutant KCNQ2 and KCNQ3 cDNAs by site-directed mutagenesis using a QuikChange kit (Stratagene, San Diego, CA) and prepared the corresponding cRNAs as above. We injected defolliculated stage V and VI Xenopus laevis oocytes (Ecocyte Bioscience, Austin, TX and Xenoocyte, Dexter, MI) with KCNQ channel α subunit (5-20 ng) or GLRA1 (20 ng) cRNAs. We incubated the oocytes at 16 °C in Barth’s saline solution (Ecocyte Bioscience) containing penicillin and streptomycin, with daily washing, for 2–5 days prior to two-electrode voltage-clamp (TEVC) recording.
We performed TEVC at room temperature using an OC-725C amplifier (Warner Instruments, Hamden, CT) and pClamp10 software (Molecular Devices, Sunnyvale, CA) 2–5 days after cRNA injection as described in the section above. For recording, oocytes were placed in a small-volume oocyte bath (Warner) and viewed them with a dissection microscope. Chemicals were sourced from Sigma, Matrix Scientific and Santa Cruz. […] All stock solutions were diluted in bath solution on the day of experiments. KCNQ2/3 channel activation was screened for using either 30 µM or 100 µM concentrations of each of the six compounds, then dose responses were conducted as appropriate. Bath solution was (in mM): 96 NaCl, 4 KCl, 1 MgCl2, 1 CaCl2, 10 HEPES (pH 7.6). Compounds were introduced into the oocyte recording bath by gravity perfusion at a constant flow of 1 ml per minute for 3 min prior to recording. Pipettes were of 1–2 MΩ resistance when filled with 3 M KCl. Currents were recorded in response to voltage pulses between −120 or −80 mV and + 40 mV at 20 mV intervals from a holding potential of −80 mV, to yield current-voltage relationships, current magnitude, and for quantifying activation rate. We analyzed data using Clampfit (Molecular Devices) and Graphpad Prism software (GraphPad, San Diego, CA, USA); values are stated as mean ± SEM. […]

KCNQ4 = KCNQ4 (Homo sapiens, UniProt P56696); experiment: TEVC of homomeric KCNQ4 expressed in Xenopus oocytes; settings: dose response
Text: as §1
We performed TEVC at room temperature using an OC-725C amplifier (Warner Instruments, Hamden, CT) and pClamp10 software (Molecular Devices, Sunnyvale, CA) 2–5 days after cRNA injection as described in the section above. For recording, oocytes were placed in a small-volume oocyte bath (Warner) and viewed them with a dissection microscope. Chemicals were sourced from Sigma, Matrix Scientific and Santa Cruz. […] All stock solutions were diluted in bath solution on the day of experiments. KCNQ2/3 channel activation was screened for using either 30 µM or 100 µM concentrations of each of the six compounds, then dose responses were conducted as appropriate. Bath solution was (in mM): 96 NaCl, 4 KCl, 1 MgCl2, 1 CaCl2, 10 HEPES (pH 7.6). Compounds were introduced into the oocyte recording bath by gravity perfusion at a constant flow of 1 ml per minute for 3 min prior to recording. Pipettes were of 1–2 MΩ resistance when filled with 3 M KCl. Currents were recorded in response to voltage pulses between −120 or −80 mV and + 40 mV at 20 mV intervals from a holding potential of −80 mV, to yield current-voltage relationships, current magnitude, and for quantifying activation rate. We analyzed data using Clampfit (Molecular Devices) and Graphpad Prism software (GraphPad, San Diego, CA, USA); values are stated as mean ± SEM. We plotted raw or normalized tail currents versus prepulse voltage and fitted with a single Boltzmann function:1 g=(A1−A2)/1+exp(V12−V)∕VS+A2, where g is the normalized tail conductance, A1 is the initial value at −∞, A2 is the final value at +∞, V1/2 is the half-maximal voltage of activation and Vs the slope factor. Activation, deactivation, wash-in and washout kinetics were fitted with single exponential functions to yield a τ value.

KCNQ3*-R242A = molecular target: T1, KCNQ3*-R242A (Homo sapiens, UniProt O43525, A315T/R242A); experiment: TEVC of homomeric KCNQ3*-R242A; settings: 100 µM
T1 sequence (O43525 1-872 R242A/A315T): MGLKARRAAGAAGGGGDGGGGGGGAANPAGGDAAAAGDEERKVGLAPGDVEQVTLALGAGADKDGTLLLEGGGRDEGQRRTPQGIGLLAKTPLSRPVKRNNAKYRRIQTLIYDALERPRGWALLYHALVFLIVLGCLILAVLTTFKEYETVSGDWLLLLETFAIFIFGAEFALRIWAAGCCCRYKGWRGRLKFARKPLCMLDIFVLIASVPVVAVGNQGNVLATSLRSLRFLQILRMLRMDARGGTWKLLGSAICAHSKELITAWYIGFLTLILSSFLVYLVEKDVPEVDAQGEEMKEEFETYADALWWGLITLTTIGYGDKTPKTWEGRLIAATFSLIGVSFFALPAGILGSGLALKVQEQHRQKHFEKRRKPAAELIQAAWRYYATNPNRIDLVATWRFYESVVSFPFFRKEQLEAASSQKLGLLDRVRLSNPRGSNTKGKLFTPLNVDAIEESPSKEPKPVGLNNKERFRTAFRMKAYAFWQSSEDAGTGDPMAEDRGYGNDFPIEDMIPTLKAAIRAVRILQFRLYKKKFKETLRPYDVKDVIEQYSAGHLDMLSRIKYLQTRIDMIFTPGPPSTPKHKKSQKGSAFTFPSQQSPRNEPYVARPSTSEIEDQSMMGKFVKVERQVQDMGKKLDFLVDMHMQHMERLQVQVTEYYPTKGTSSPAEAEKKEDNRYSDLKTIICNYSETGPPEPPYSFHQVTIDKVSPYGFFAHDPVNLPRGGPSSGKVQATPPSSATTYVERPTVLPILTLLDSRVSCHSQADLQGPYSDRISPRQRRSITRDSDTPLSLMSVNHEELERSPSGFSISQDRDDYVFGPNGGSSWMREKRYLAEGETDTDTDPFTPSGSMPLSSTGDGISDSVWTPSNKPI
Text: We generated cRNA transcripts encoding human KCNQ1, KCNQ2, KCNQ3, KCNQ4, KCNQ5 or GLRA1 (NM_001146040) (GenScript, Piscataway, NJ, USA) by in vitro transcription using the T7 polymerase mMessage mMachine kit (Thermo Fisher Scientific), after vector linearization, from cDNA sub-cloned into plasmids incorporating Xenopus laevis β-globin 5′ and 3′ UTRs flanking the coding region to enhance translation and cRNA stability. We quantified cRNA by spectrophotometry. We generated mutant KCNQ2 and KCNQ3 cDNAs by site-directed mutagenesis using a QuikChange kit (Stratagene, San Diego, CA) and prepared the corresponding cRNAs as above. […]
We performed TEVC at room temperature using an OC-725C amplifier (Warner Instruments, Hamden, CT) and pClamp10 software (Molecular Devices, Sunnyvale, CA) 2–5 days after cRNA injection as described in the section above. […] Currents were recorded in response to voltage pulses between −120 or −80 mV and + 40 mV at 20 mV intervals from a holding potential of −80 mV, to yield current-voltage relationships, current magnitude, and for quantifying activation rate. We analyzed data using Clampfit (Molecular Devices) and Graphpad Prism software (GraphPad, San Diego, CA, USA); values are stated as mean ± SEM. […]

## CS(=O)(=O)N(CC(=O)O)c1cccc(F)c1 [3FMSG]
KCNQ3*; 100 µM
  KCNQ3* activation and deactivation rates: speeded activation and slowed deactivation
KCNQ3*; ΔV0.5act, read-out: EC50, KCNQ3* activation
  EC50: 18 ± 12 nM
KCNQ4
  effects on KCNQ4: negligible or much less potent effects
KCNQ3*-R242A
  effect on nonfunctional KCNQ3*-R242A: awakened neither by 3FMSG nor retigabine
